From PubChem BioAssay (NCI) come the findings set out here.

SMILES strings stand for the structures.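 Growth conditions: 96-well plates. Treatment: test compound, 48 hours, 5 concentrations. Analysis: linear interpolation between bracketing concentrations; unreached endpoints set to highest concentration. The concentration for full growth arrest is given as TGI.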 Some results are limits rather than exact numbers.

Test systems include T-47D breast; SNB-19 CNS; HL-60(TB) leukemia; UACC-62 melanoma; NCI-H226 lung; HCC-2998 colon; NCI-H460 lung; UO-31 renal; ACHN renal; OVCAR-5 ovarian.
What all share (assay): NCI tumour cell line growth inhibition, 48 h

On to `OC(c1ccco1)C(F)(F)c1nc2ccccc2o1` (configuration not stated), for which the TGI with T-47D breast, with SNB-19 CNS, in the assay with HL-60(TB) leukemia, with UACC-62 melanoma, in the assay with NCI-H226 lung and in the assay with HCC-2998 colon was above 100 µM each time. The TGI with NCI-H460 lung, with UO-31 renal and in the assay on ACHN renal was above 100 µM each time.

`COC(=O)C1=C(C(=O)OC)C2(C)CCC(=O)C1O2` (configuration not stated): the TGI with T-47D breast, in the assay with SNB-19 CNS, in the assay on HL-60(TB) leukemia, in the assay on OVCAR-5 ovarian, in the assay with UACC-62 melanoma and with NCI-H226 lung was above 10 µM throughout. The TGI in the assay with HCC-2998 colon, with NCI-H460 lung, in the assay on UO-31 renal and in the assay with ACHN renal was above 10 µM each time.

Regarding `COc1ccc(CCCCl)c(C2=NCCc3ccccc32)c1`, the TGI with T-47D breast, in the assay on SNB-19 CNS, in the assay on HL-60(TB) leukemia, in the assay on OVCAR-5 ovarian, with UACC-62 melanoma and with NCI-H226 lung was above 100 µM throughout. Moreover, the TGI in the assay with HCC-2998 colon, in the assay with NCI-H460 lung, in the assay on UO-31 renal and in the assay on ACHN renal was above 100 µM in each case.

Turning to `Cc1ccsc1C(=S)Nc1ccc(Cl)c(C(=O)OC(C(C)C)C(C)C)c1`, the TGI in the assay on T-47D breast was above 100 µM; in the assay on SNB-19 CNS, 91.7 µM; in the assay on HL-60(TB) leukemia, 31.5 µM; in the assay on OVCAR-5 ovarian, above 100 µM; with UACC-62 melanoma, above 100 µM; in the assay on NCI-H226 lung, above 100 µM. Moreover, the TGI with HCC-2998 colon, in the assay with NCI-H460 lung, with UO-31 renal and in the assay with ACHN renal was above 100 µM in each case.

As for `COc1cc2c(cc1O)CC[n+]1cc3c(OC)c(OC)ccc3cc1-2`, the TGI with T-47D breast, in the assay with SNB-19 CNS, in the assay with HL-60(TB) leukemia, with OVCAR-5 ovarian, with UACC-62 melanoma and in the assay with NCI-H226 lung was above 100 µM throughout. Further, the TGI in the assay on HCC-2998 colon, with NCI-H460 lung, in the assay with UO-31 renal and in the assay with ACHN renal was above 100 µM each time.

Regarding `Cc1ccc(C(=O)c2[nH]c(Nc3cc(C)ccn3)c(C(=S)Nc3ccccc3)c2N)cc1`, the TGI with T-47D breast, in the assay with SNB-19 CNS, with HL-60(TB) leukemia, in the assay on OVCAR-5 ovarian, with UACC-62 melanoma and in the assay on NCI-H226 lung was above 100 µM each time. Further, the TGI in the assay with HCC-2998 colon, in the assay on NCI-H460 lung, with UO-31 renal and with ACHN renal was above 100 µM throughout.

For the compound `C(=N/Nc1ccc(-c2nc3ccccc3[nH]2)cc1)/c1c(-c2ccccc2)[nH]c2ccccc12`, the TGI is above 100 µM in the assay on T-47D breast; 1.06 µM in the assay on HL-60(TB) leukemia; 6.47 µM in the assay with NCI-H226 lung; 1.22 µM in the assay on HCC-2998 colon; 32.3 µM in the assay on NCI-H460 lung; above 100 µM in the assay on UO-31 renal. In the assay with ACHN renal, this compound registered a TGI above 100 µM.

For the compound `COc1cc(-c2c3c(cc4c2OCO4)[C@@H](Nc2ccc4c(c2)Cc2cc(N[C@@H]5c6cc7c(cc6C(c6cc(OC)c(O)c(OC)c6)[C@H]6C(=O)OC[C@H]56)OCO7)ccc2-4)[C@H]2COC(=O)[C@@H]2C3)cc(OC)c1O` (some centres not stated), the TGI was above 100 µM with T-47D breast; above 100 µM with SNB-19 CNS; above 100 µM in the assay with HL-60(TB) leukemia; 88.3 µM in the assay on OVCAR-5 ovarian; above 100 µM in the assay on NCI-H226 lung; above 100 µM in the assay with NCI-H460 lung. The TGI in the assay on UO-31 renal and in the assay on ACHN renal was above 100 µM each time.

`CC12CCC(C/C1=N\NC(N)=O)C2(C)C` (configuration not stated): the TGI in the assay on T-47D breast, in the assay with SNB-19 CNS, with HL-60(TB) leukemia, in the assay with OVCAR-5 ovarian, in the assay on UACC-62 melanoma and in the assay on NCI-H226 lung was above 100 µM each time. Further, the TGI in the assay on NCI-H460 lung, in the assay on UO-31 renal and in the assay with ACHN renal was above 100 µM throughout.

For `CN(C)c1nc(=NCc2ccccn2)ss1`, the TGI with T-47D breast is above 10 µM; with SNB-19 CNS, above 10 µM; in the assay with HL-60(TB) leukemia it was 4.95 µM; in the assay with OVCAR-5 ovarian, above 10 µM; in the assay with UACC-62 melanoma it was above 10 µM; with NCI-H226 lung, above 10 µM. Further, the TGI with HCC-2998 colon, in the assay with NCI-H460 lung, in the assay on UO-31 renal and in the assay with ACHN renal was above 10 µM each time.

For `CCOC(=O)c1c(NC(=S)Nc2ccc(C)cc2)sc2c1CCN(C)C2`, the TGI with T-47D breast, in the assay with SNB-19 CNS, in the assay on HL-60(TB) leukemia, in the assay with OVCAR-5 ovarian, in the assay on UACC-62 melanoma and in the assay on NCI-H226 lung was above 100 µM in each case. Further, the TGI in the assay on NCI-H460 lung, in the assay on UO-31 renal and with ACHN renal was above 100 µM each time.

On to `CCOC1NC(=O)c2ccccc21` (configuration not stated), for which the TGI in the assay on T-47D breast, in the assay on SNB-19 CNS, with HL-60(TB) leukemia, in the assay with OVCAR-5 ovarian, in the assay with UACC-62 melanoma and in the assay on NCI-H226 lung was above 100 µM in each case. In addition, the TGI with HCC-2998 colon, in the assay on NCI-H460 lung, in the assay with UO-31 renal and in the assay on ACHN renal was above 100 µM throughout.

Take `FC(F)=C(c1ccc(-c2ccc(Cl)cc2)cc1)C(F)(F)F`: the TGI in the assay with T-47D breast was 76.8 µM; in the assay with SNB-19 CNS, 36.9 µM; in the assay with HL-60(TB) leukemia, above 100 µM; in the assay with OVCAR-5 ovarian it was 31.3 µM; in the assay with UACC-62 melanoma, 38.6 µM; in the assay with NCI-H460 lung, 33.7 µM. Besides, the TGI came to 31 µM in the assay with UO-31 renal and 31.1 µM in the assay on ACHN renal.

As to `O=C(CN=C(CN(c1ccccc1)c1ccccc1)Oc1c(Cl)cc(Cl)cc1Cl)n1cnc2ccccc21`, the TGI in the assay on T-47D breast, in the assay with SNB-19 CNS, in the assay on HL-60(TB) leukemia, in the assay on OVCAR-5 ovarian, in the assay on UACC-62 melanoma and in the assay on NCI-H226 lung was above 100 µM each time. For the same compound, the TGI with HCC-2998 colon, in the assay with NCI-H460 lung and in the assay with ACHN renal was above 100 µM each time.

On to `CC1=C(C(=O)NNC(=O)CC#N)CC(C(=O)NNC(=O)CC#N)=C(C)N1`, for which the TGI in the assay with T-47D breast, in the assay with SNB-19 CNS, with HL-60(TB) leukemia, in the assay with OVCAR-5 ovarian, in the assay on NCI-H226 lung and with HCC-2998 colon was above 100 µM each time. In addition, the TGI in the assay on NCI-H460 lung, with UO-31 renal and with ACHN renal was above 100 µM in each case.

Regarding `O=C(O)c1cc2ccccc2c(S(=O)(=O)O)c1O`, the TGI with T-47D breast, in the assay on SNB-19 CNS, in the assay with HL-60(TB) leukemia, with OVCAR-5 ovarian, in the assay on UACC-62 melanoma and in the assay with HCC-2998 colon was above 100 µM in each case. Further, the TGI with NCI-H460 lung, with UO-31 renal and in the assay with ACHN renal was above 100 µM each time.

On to `CC(C)Cc1c(C#N)c(C#N)c(N)n1Cc1ccccc1`, for which the TGI in the assay on T-47D breast, with SNB-19 CNS, in the assay on HL-60(TB) leukemia, with OVCAR-5 ovarian, with UACC-62 melanoma and with NCI-H226 lung was above 100 µM throughout. The TGI with HCC-2998 colon, in the assay with UO-31 renal and in the assay on ACHN renal was above 100 µM each time.

For `NNC(=O)c1cccc2c1Oc1ccccc1S2`, the TGI in the assay with T-47D breast, in the assay on SNB-19 CNS, in the assay with HL-60(TB) leukemia, in the assay on UACC-62 melanoma, in the assay with NCI-H226 lung and in the assay with HCC-2998 colon was above 100 µM each time. The TGI with NCI-H460 lung, in the assay with UO-31 renal and in the assay with ACHN renal was above 100 µM each time.

Turning to `O=c1c(Cc2ccccc2)c(-c2ccccc2)[nH]n1C1=NCCN1`, the TGI in the assay with T-47D breast, in the assay with SNB-19 CNS, with HL-60(TB) leukemia, in the assay with OVCAR-5 ovarian, in the assay on UACC-62 melanoma and in the assay with NCI-H226 lung was above 100 µM in each case. The TGI with NCI-H460 lung, in the assay on UO-31 renal and in the assay on ACHN renal was above 100 µM in each case.

In the case of `COC(=O)C1=C(C)N2[C@H](C(=O)O)CS[C@@]2(C)[C@H](C(=O)OC)[C@H]1c1cccc([N+](=O)[O-])c1`, the TGI with T-47D breast, with SNB-19 CNS, with OVCAR-5 ovarian, with UACC-62 melanoma, in the assay on NCI-H226 lung and in the assay on HCC-2998 colon was above 100 µM each time. Moreover, the TGI in the assay with NCI-H460 lung, in the assay with UO-31 renal and with ACHN renal was above 100 µM each time.

In the case of `O=C1NN=C(c2c[nH]c3ccccc23)CC1NCc1ccccc1` (configuration not stated), the TGI in the assay on T-47D breast, in the assay on SNB-19 CNS, in the assay on HL-60(TB) leukemia, in the assay with OVCAR-5 ovarian, in the assay with UACC-62 melanoma and with NCI-H226 lung was above 100 µM each time. The TGI with NCI-H460 lung, with UO-31 renal and with ACHN renal was above 100 µM each time.
